Numbers after ± are expanded uncertainties.
Assays:
[1] = Molar enthalpy of transition or fusion; conditions: Crystal; DSC
[2] = Crystal; DSC
[3] = refractive index (Na D-line) (dimensionless); conditions: 293.15 K; 101.33 kPa; Liquid; Standard Abbe refractometry

| Molar enthalpy of transition or fusion [1] [kcal/mol] | Triple point temperature [2] [K] | refractive index [3] | SMILES |
| --- | --- | --- | --- |
| 4.25 ± 0.43 | 395.63 ± 1.2 |  | O=C(O)c1ccccc1 [benzoic acid] |
|  |  | 1.3989 ± 0.002 | CCCCO [butan-1-ol] |
|  |  | 1.4235 ± 0.002 | C1CCCCC1 [cyclohexane] |
|  |  | 1.4789 ± 0.002 | C[S+](C)[O-] [dimethyl sulfoxide] |
|  |  | 1.4309 ± 0.002 | CN(C)C=O [dimethylformamide] |
|  |  | 1.361 ± 0.002 | CCO [ethanol] |
| 8.7 ± 0.884 | 468.1 ± 1.2 |  | Cc1nnc(C(C)C)n1[C@@H]1C[C@H]2CC[C@@H](C1)N2CC[C@H](NC(=O)C1CCC(F)(F)CC1)c1ccccc1 [maraviroc] |
|  |  | 1.3893 ± 0.002 | CCCC(C)=O [pentan-2-one] |
|  |  | 1.3854 ± 0.002 | CCCO [propan-1-ol] |
| 9.04 ± 0.932 | 432.4 ± 1.2 |  | O=C(Nc1c(Cl)cncc1Cl)c1ccc(OC(F)F)c(OCC2CC2)c1 [roflumilast] |
|  |  | 1.3334 ± 0.002 | O [water] |

| SMILES | Molar enthalpy of transition or fusion [1] [kcal/mol] | Triple point temperature [2] [K] | refractive index [3] |
| --- | --- | --- | --- |
| CCC(C)=O [butanone] |  |  | 1.3787 ± 0.002 |
